Structures can show the parent of a compound that is named as a salt.
Tests used:
ER [1] = target: T1, ER (Homo sapiens (Human), UniProt P03372); experiment: In-cell western (ICW) ER degradation assay in MCF-7 cells; format: cell-based; details: MCF7, 16 hrs; for DC50: ER degradation; for Dmax: MCF7, maximal ER degradation
Procedure: (§1) ERa degradative activity of compounds can be assessed in MCF-7 and T47D Cells. MCF-7 and T47D cell are seeded and are subsequently treated with the compounds at certain concentrations (e.g., 0.02 to 300 nM). DMSO can be used as vehicle control. Cells are fixed and are blocked with Intercept (PBS) Blocking Buffer (e.g., Li-COR, Odyssey Blocking Buffer), and are stained with ER (e.g., 1:500, Cell signaling) primary antibody for overnight at cold room. Secondary Antibody (e.g., IRDye 800CW Goat anti-Rabbit IgG) and CellTag 700 Stain are added in Intercept (PBS) Blocking Buffer. Finally, cell plate is placed in incubator to dry. Image and signal are captured on Odyssey® DLx Imaging System.
(§2) Day 3: After 16 hrs of compounds treatment, cells were fixed by 4% PFA and permeabilized with elution buffer (0.1% Triton X-100 in 1% PBS Solution). Subsequently, cells were blocked with Intercept (PBS) Blocking Buffer (Li-COR, Odyssey Blocking Buffer), and were stained with ER (1:500, Cell signaling) primary antibody for overnight at cold room.
(§3) Day 4: Remove the buffer, add IRDye 800CW Goat anti-Rabbit IgG Secondary Antibody (1:2000) and CellTag 700 Stain (1:500) in Intercept (PBS) Blocking Buffer. Finally, cell plate is placed in incubator to dry. Image and signal were captured on Odyssey® DLx Imaging System.

ER [2] = target: T1, ER; experiment: In-cell western (ICW) ER degradation assay in T47D cells; format: cell-based; details: 16 hrs; for Dmax: maximal ER degradation; for DC50: ER degradation
Procedure: as §1, §2, §3

T1 sequence (P03372 whole entry): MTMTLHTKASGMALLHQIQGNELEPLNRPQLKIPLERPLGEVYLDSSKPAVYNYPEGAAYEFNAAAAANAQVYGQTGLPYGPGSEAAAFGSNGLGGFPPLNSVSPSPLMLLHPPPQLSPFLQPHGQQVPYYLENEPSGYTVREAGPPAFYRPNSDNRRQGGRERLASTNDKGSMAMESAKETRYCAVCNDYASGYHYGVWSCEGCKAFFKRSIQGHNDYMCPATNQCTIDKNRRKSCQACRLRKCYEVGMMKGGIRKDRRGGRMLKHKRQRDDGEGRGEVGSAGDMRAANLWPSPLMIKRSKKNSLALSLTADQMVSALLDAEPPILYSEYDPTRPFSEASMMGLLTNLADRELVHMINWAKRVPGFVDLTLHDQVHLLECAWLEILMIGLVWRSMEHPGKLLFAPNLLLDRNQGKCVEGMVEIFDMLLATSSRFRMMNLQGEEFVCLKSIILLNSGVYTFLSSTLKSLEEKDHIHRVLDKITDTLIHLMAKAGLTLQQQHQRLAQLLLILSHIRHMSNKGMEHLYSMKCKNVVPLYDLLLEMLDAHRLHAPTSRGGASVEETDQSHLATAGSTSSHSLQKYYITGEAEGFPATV

O=C1CCC(N2Cc3cc4c(cc3C2=O)OC[C@@H]2CN(CC3CCN(c5ccc([C@@H]6c7ccc(O)cc7OC[C@@H]6c6ccccc6)cc5)CC3)CCN42)C(=O)N1 (single isomer, unassigned) [Compound A1]
DC50 (ER [1]): 1 to 10 nM | Dmax (ER [1]): 50 to 75%

O=C1CCC(N2Cc3cc4c(cc3C2=O)OC[C@@H]2CN(CC3CCN(c5ccc([C@@H]6c7ccc(O)cc7OC[C@@H]6c6ccccc6)cc5F)CC3)CCN42)C(=O)N1 (single isomer, unassigned) [Compound A2, 3-((S)-3-((1-(2-fluoro-4-((3S,4R)-7-hydroxy-3-phenylchroman-4-yl)phenyl)piperidin-4-yl)methyl)-8-oxo-1,2,3,4,4a, 5,8,10-octahydro-9H-pyrazino[1′,2′:4,5][1,4]oxazino[2,3-f]isoindol-9-yl)piperidine-2,6-dione]
DC50 (ER [1]): 1 to 10 nM

O=C1CCC(N2Cc3cc4c(cc3C2=O)OC[C@@H]2CN(CC3CCN(c5ccc([C@@H]6c7ccc(O)cc7OC[C@@H]6c6ccccc6)cc5F)CC3)CCN42)C(=O)N1 (single isomer, unassigned) [Compound A2]
Dmax (ER [1]): 50 to 75%

O=C1CCC(N2C(=O)c3cc4c(cc3C2=O)CN(CC(=O)N2CCC3(CC2)CCN(c2ccc([C@@H]5c6ccc(O)cc6OC[C@@H]5c5ccccc5)cc2)CC3)C4)C(=O)N1 (single isomer, unassigned) [Compound A3]
DC50 (ER [1]): 1 to 10 nM | Dmax (ER [1]): 25 to 50%

COc1ccc([C@H]2COc3cc(O)ccc3[C@H]2c2ccc(N3CCC(CN4CCN5c6ccc7c(c6OC[C@H]5C4)CN(C4CCC(=O)NC4=O)C7=O)CC3)cc2)cc1 (single isomer, unassigned) [Compound A16, 3-((R)-7-((1-(4-((3S,4R)-7-hydroxy-3-(4-methoxyphenyl)chroman-4-yl)phenyl)piperidin-4-yl)methyl)-1-oxo-1,3,5,5a, 6,7,8,9-octahydro-2H-pyrazino[1′,2′:4,5][1,4]oxazino[2,3-e]isoindol-2-yl)piperidine-2,6-dione]
DC50 (ER [1]): < 1 nM

COc1ccc([C@H]2COc3cc(O)ccc3[C@H]2c2ccc(N3CCC(CN4CCN5c6ccc7c(c6OC[C@H]5C4)CN(C4CCC(=O)NC4=O)C7=O)CC3)cc2)cc1 (single isomer, unassigned) [Compound A16]
Dmax (ER [1]): 50 to 75%

COc1cccc([C@H]2COc3cc(O)ccc3[C@H]2c2ccc(N3CCC(CN4CCN5c6ccc7c(c6OC[C@H]5C4)CN(C4CCC(=O)NC4=O)C7=O)CC3)cc2)c1 (single isomer, unassigned) [Compound A33, 3-((R)-7-((1-(4-((3S,4R)-7-hydroxy-3-(3-methoxyphenyl)chroman-4-yl)phenyl)piperidin-4-yl)methyl)-1-oxo-1,3,5,5a,6,7,8,9-octahydro-2H-pyrazino[1′,2′:4,5][1,4]oxazino[2,3-e]isoindol-2-yl)piperidine-2,6-dione]
Dmax (ER [1]): 50 to 75% | Dmax (ER [2]): 50 to 75%

O=C1CCC(N2Cc3cc4c(cc3C2=O)OC[C@@H]2CN(CC3CCN(c5ccc([C@@H]6c7ccc(O)cc7OC[C@@H]6c6ccccc6)cn5)CC3)CCN42)C(=O)N1 (single isomer, unassigned) [Compound A70, 3-((S)-3-((1-(5-((3S,4R)-7-hydroxy-3-phenylchroman-4-yl)pyridin-2-yl)piperidin-4-yl)methyl)-8-oxo-1,2,3,4,4a,5,8,10-octahydro-9H-pyrazino[1′,2′:4,5][1,4]oxazino[2,3-f]isoindol-9-yl)piperidine-2,6-dione]
Dmax (ER [1]): < 25% | Dmax (ER [2]): 25 to 50%

O=C1CC[C@@H](N2Cc3c(ccc4c3OC[C@H]3CN(CC5CC6(CCN(c7ccc([C@@H]8c9ccc(O)cc9OC[C@@H]8c8ccccc8)cc7)CC6)C5)CCN43)C2=O)C(=O)N1 (single isomer, unassigned) [Compound A89]
DC50 (ER [1]): < 1 nM | Dmax (ER [1]): ≥ 75% | DC50 (ER [2]): < 1 nM | Dmax (ER [2]): ≥ 75%

O=C1CCC(Nc2ccc3c(c2)OC[C@H]2CN(CC4CCN(c5ccc([C@@H]6c7ccc(O)cc7OC[C@@H]6c6ccccc6)cc5)CC4)CCN32)C(=O)N1 (single isomer, unassigned) [Compound A91, 3-(((R)-3-((1-(4-((3S,4R)-7-hydroxy-3-phenylchroman-4-yl)phenyl)piperidin-4-yl)methyl)-1,2,3,4,4a,5-hexahydrobenzo[b]pyrazino[1,2-d][1,4]oxazin-8-yl)amino)piperidine-2,6-dione hydrochloride]
Dmax (ER [1]): 50 to 75% | Dmax (ER [2]): 50 to 75%

COc1cc(N2CCC(CN3CCN4c5ccc6c(c5OC[C@@H]4C3)CN([C@@H]3CCC(=O)NC3=O)C6=O)CC2)ccc1[C@H]1c2ccc(O)cc2OC[C@H]1c1ccccc1 (single isomer, unassigned) [Compound A121, (R)-3-((S)-7-((1-(4-((3R,4S)-7-hydroxy-3-phenylchroman-4-yl)-3-methoxyphenyl)piperidin-4-yl)methyl)-1-oxo-1,3,5,5a, 6,7,8,9-octahydro-2H-pyrazino[1′,2′:4,5][1,4]oxazino[2,3-e]isoindol-2-yl)piperidine-2,6-dione]
DC50 (ER [1]): < 1 nM | DC50 (ER [2]): < 1 nM

O=C1CC[C@@H](N2Cc3c(ccc4c3OC[C@@H]3CN(CC5COC6(CCN(c7ccc([C@@H]8c9ccc(O)cc9OC[C@@H]8c8ccccc8)cc7F)CC6)C5)CCN43)C2=O)C(=O)N1 (single isomer, unassigned) [Compound A158, (3R)-3-((5aS)-7-((8-(2-fluoro-4-((3S,4R)-7-hydroxy-3-phenylchroman-4-yl)phenyl)-1-oxa-8-azaspiro[4.5]decan-3-yl)methyl)-1-oxo-1,3,5,5a,6,7,8,9-octahydro-2H-pyrazino[1′,2′:4,5][1,4]oxazino[2,3-e]isoindol-2-yl)piperidine-2,6-dione]
Dmax (ER [1]): 50 to 75% | Dmax (ER [2]): ≥ 75%

O=C1CC[C@@H](N2Cc3cc4c(cc3C2=O)OC[C@H]2CN(CC3COC5(CCN(c6ccc(C7c8ccc(O)cc8OCC7c7ccccc7)cc6)CC5)C3)CCN42)C(=O)N1 (stereo in doubt) [Compound A139, (3R)-3-((4aR)-3-((8-(4-((3R,4S)-7-hydroxy-3-phenylchroman-4-yl)phenyl)-1-oxa-8-azaspiro[4.5]decan-3-yl)methyl)-8-oxo-1,2,3,4,4a, 5,8,10-octahydro-9H-pyrazino[1′,2′:4,5][1,4]oxazino[2,3-f]isoindol-9-yl)piperidine-2,6-dione]
DC50 (ER [1]): < 1 nM | Dmax (ER [1]): 50 to 75% | DC50 (ER [2]): < 1 nM | Dmax (ER [2]): 50 to 75%

COc1cc(N2CCC(CN3CCC(c4ccc(N[C@H]5CCC(=O)NC5=O)cc4)CC3)CC2)ccc1[C@@H]1c2ccc(O)cc2OC[C@@H]1c1ccccc1 (stereo in doubt) [Compound A149, (S)-3-((4-(1-((1-(4-((3S,4R)-7-hydroxy-3-phenylchroman-4-yl)-3-methoxyphenyl)piperidin-4-yl)methyl)piperidin-4-yl)phenyl)amino)piperidine-2,6-dione]
DC50 (ER [1]): < 1 nM | Dmax (ER [1]): 50 to 75% | DC50 (ER [2]): < 1 nM | Dmax (ER [2]): 50 to 75%

O=C1CCC(N2Cc3cc4c(cc3C2=O)OCC42CCN(CC3CC4(CCN(c5ccc([C@@H]6c7ccc(O)cc7OC[C@@H]6c6ccccc6)cc5)CC4)C3)CC2)C(=O)N1 (stereo partly drawn) [Compound A71, 3-(1′-((7-(4-((3S,4R)-7-hydroxy-3-phenylchroman-4-yl)phenyl)-7-azaspiro[3.5]nonan-2-yl)methyl)-7-oxo-5,7-dihydro-2H,6H-spiro[furo[2,3-f]isoindole-3,4′-piperidin]-6-yl)piperidine-2,6-dione]
DC50 (ER [1]): < 1 nM | Dmax (ER [1]): 50 to 75% | DC50 (ER [2]): < 1 nM | Dmax (ER [2]): 50 to 75%

O=C1CCC(N2Cc3cc4c(cc3C2=O)OCC42CCN(CC3CCN(c4ccc([C@@H]5c6ccc(O)cc6OC[C@@H]5c5ccccc5)cc4)CC3)CC2)C(=O)N1 (stereo partly drawn) [Compound A86, 3-(1′-((1-(4-((3S,4R)-7-hydroxy-3-phenylchroman-4-yl)phenyl)piperidin-4-yl)methyl)-7-oxo-5,7-dihydro-2H,6H-spiro[furo[2,3-f]isoindole-3,4′-piperidin]-6-yl)piperidine-2,6-dione]
DC50 (ER [2]): < 1 nM | Dmax (ER [2]): 25 to 50%

O=C1CCC(N2Cc3cc4c(cc3C2=O)OCC42CCN(CC3CC4(CCN(c5ccc([C@H]6c7ccc(O)cc7OC[C@H]6c6ccccc6)cn5)CC4)C3)CC2)C(=O)N1 (stereo partly drawn) [Compound A123, 3-(1′-((7-(5-((3R,4S)-7-hydroxy-3-phenylchroman-4-yl)pyridin-2-yl)-7-azaspiro[3.5]nonan-2-yl)methyl)-7-oxo-5,7-dihydro-2H,6H-spiro[furo[2,3-f]isoindole-3,4′-piperidin]-6-yl)piperidine-2,6-dione]
DC50 (ER [1]): < 1 nM | Dmax (ER [1]): 50 to 75% | DC50 (ER [2]): < 1 nM | Dmax (ER [2]): 50 to 75%

O=C1CC[C@@H](N2Cc3c(ccc4c3OCC43CCN(CC4CC5(CCN(c6ccc([C@H]7c8ccc(O)cc8OC[C@H]7c7ccccc7)cc6)CC5)C4)CC3)C2=O)C(=O)N1 [Compound A143, (R)-3-(1′-((7-(4-((3R,4S)-7-hydroxy-3-phenylchroman-4-yl)phenyl)-7-azaspiro[3.5]nonan-2-yl)methyl)-6-oxo-6,8-dihydro-2H,7H-spiro[furo[2,3-e]isoindole-3,4′-piperidin]-7-yl)piperidine-2,6-dione]
DC50 (ER [1]): 10 to 100 nM | Dmax (ER [1]): 25 to 50% | DC50 (ER [2]): 10 to 100 nM | Dmax (ER [2]): 25 to 50%
